# Several values for one entry are separate records, joined by “and”; a condition that tells them apart may be missing. Identical values can stand only once.
# Key:
# rhinovirus, type 30 = assay: In vitro antiviral, inhibition of virus-induced CPE, RV/30; assay type: cell-based; conditions: KB or RK-13 cells, VR >0.5 significant, <0.5 slight antiviral activity
# Method: (§1) In this example, compounds 3, 4, 13, 16, 20, 22, 29 and 30 were tested to determine their in vitro antiviral efficacy, using the inhibition virus-induced cytopathogenic effect (CPE) method of Sidwell, et al. (Applied Microbiology 22:797-801, 1971). Briefly, the CPE procedure includes the suspension of the antiviral agent in a cell culture medium consisting of vitamins, amino acids, serum, buffer, penicillin, streptomycin and indicator dye in water. The virus suspended in the cell culture medium was added to an established monolayer of KB cells or RK-13 cells, and an equal volume of the antiviral agent was then added within 15 minutes. The infected treated cells were graded following microscopic examination. Controls for each experiment include cell controls cells and cell culture medium only), virus controls (cell and virus cell culture medium) and toxicity controls (cells and chemical and cell culture medium).
# (§2) The virus rating (VR) system of Sidwell et al., described in Applied Microbiology, supra, was used to evaluate the degree of significance of CPE inhibition.
# pseudorabies virus = assay type: cell-based; conditions: PRV; KB or RK-13 cells; VR >0.5 significant, <0.5 slight antiviral activity
# rhinovirus, type 13 = assay: In vitro antiviral, inhibition of virus-induced CPE, RV/13; assay type: cell-based; conditions: KB or RK-13 cells, VR >0.5 significant, <0.5 slight antiviral activity
# L1210 cells [1] = assay: Inhibition of incorporation of 3H-uridine into the acid-insoluble fraction of L1210 cells; assay type: cell-based; conditions: Mus musculus; 10^-5 M; L1210 cells in tissue culture
# Method: (§3) In this example compound 30 was tested for antitumor activity in mice. […] A 10^-5 M concentration of compound 30 caused 50% inhibition of the incorporation of ^3 H-thymidine and ^3 H-uridine into the acidinsoluble fraction of L1210 cells in tissue culture. […] Ara C (cytosine arabinoside) was included as a standard.
# [2] = test system: parainfluenza virus, type 1; assay: In vitro antiviral, inhibition of virus-induced CPE, PIV/1; assay type: cell-based; conditions: PIV/1; KB or RK-13 cells; VR >0.5 significant, <0.5 slight antiviral activity
# vaccinia virus = assay type: cell-based; conditions: VV; KB or RK-13 cells; VR >0.5 significant, <0.5 slight antiviral activity
# [3] = test system: herpes simplex virus, type 1; assay: In vitro antiviral, inhibition of virus-induced CPE, HSV/1; assay type: cell-based; conditions: KB or RK-13 cells, VR >0.5 significant, <0.5 slight antiviral activity
# influenza virus, type Ao = assay: In vitro antiviral, inhibition of virus-induced CPE, IV/Ao; assay type: cell-based; conditions: KB or RK-13 cells, VR >0.5 significant, <0.5 slight antiviral activity
# human cytomegalovirus = assay: In vitro antiviral, inhibition of virus-induced CPE, HCMV; assay type: cell-based; conditions: KB or RK-13 cells, VR >0.5 significant, <0.5 slight antiviral activity
# Escherichis = assay: In vitro antibacterial, broth dilution assay, Escherichia; assay type: cell-based; conditions: 24 h, read-out: Average MIC
# Method: (§4) In this example compounds 7 and 30 were tested to determine their in vitro antibacterial activity. Clinical isolates of pathogens were used for this example. In vitro sensitivity of these organisms were quantitatively determined by broth dilution assay. Serial dilutions were prepared in chemically defined medium in a range from 100 to 0.01 μg/ml. The minimal Inhibitory Concentration (MIC) was recorded as the highest dilution of compound which prevented visible growth of the pathogen following 24 hr incubation at 35°.
# [4] = test system: Parainfluenza virus, type 3; assay: In vitro antiviral, inhibition of virus-induced CPE, PIV/3; assay type: cell-based; conditions: PIV/3; KB or RK-13 cells; VR >0.5 significant, <0.5 slight antiviral activity
# L1210 cells [5] = assay: Inhibition of incorporation of 3H-thymidine into the acid-insoluble fraction of L1210 cells; assay type: cell-based; conditions: Mus musculus; 10^-5 M; L1210 cells in tissue culture
# Method: as §3
# myxoma virus = assay: In vitro antiviral, inhibition of virus-induced CPE, MV; assay type: cell-based; conditions: KB or RK-13 cells, VR >0.5 significant, <0.5 slight antiviral activity
# Method: as §1, §2
# rhinovirus, type 56 = assay: In vitro antiviral, inhibition of virus-induced CPE, RV/56; assay type: cell-based; conditions: KB or RK-13 cells, VR >0.5 significant, <0.5 slight antiviral activity
# L1210 cells [6] = assay: Cytotoxicity to L1210 cells in tissue culture; assay type: cell-based
# Method: as §3
# adenovirus, type 3 = assay: In vitro antiviral, inhibition of virus-induced cytopathogenic effect (CPE), AV/3; assay type: cell-based; conditions: KB or RK-13 cells, VR >0.5 significant, <0.5 slight antiviral activity
# RV/2: rhinovirus, type 1 = assay: In vitro antiviral, inhibition of virus-induced CPE, RV/2; assay type: cell-based; conditions: KB or RK-13 cells, VR >0.5 significant, <0.5 slight antiviral activity
# murine cytomegalovirus = assay: In vitro antiviral, inhibition of virus-induced CPE, MCMV; assay type: cell-based; conditions: KB or RK-13 cells, VR >0.5 significant, <0.5 slight antiviral activity
# Method: as §1, §2
# rhinovirus, type 1A = assay: In vitro antiviral, inhibition of virus-induced CPE, RV/1A; assay type: cell-based; conditions: KB or RK-13 cells, VR >0.5 significant, <0.5 slight antiviral activity
# Hela cells = assay: Cytotoxicity to Hela cells in tissue culture; assay type: cell-based
# [7] = test system: vesicular stomatitis virus; assay type: cell-based; conditions: VSV; KB or RK-13 cells; VR >0.5 significant, <0.5 slight antiviral activity
# Proteus = assay: In vitro antibacterial, broth dilution assay, Proteus; assay type: cell-based; conditions: 24 h, read-out: Average MIC
# Method: as §4
# adenocarcinoma 755 = assay: Inhibition of growth of subcutaneous implants of adenocarcinoma 755 in C57 Blk/6 female mice; assay type: in vivo; conditions: 40 mg/kg i.p. (qd, 1-7)
# LD10 = assay: LD10; parameters: species or system mice; conditions: mouse, in vivo
# rhinovirus, type 8 = assay: In vitro antiviral, inhibition of virus-induced CPE, RV/8; assay type: cell-based; conditions: KB or RK-13 cells, VR >0.5 significant, <0.5 slight antiviral activity
# leukemia L1210 = assay: Activity against leukemia L1210 in BDF1 female mice; assay type: in vivo; conditions: qd [1-9]
# Method: as §3
# All animals were inoculated (i.p) with 10^5 leukemic cells. Treatment
# was started 24 hours after transplant. Figures in parenthesis denote 21
structure (smiles),measurement,setting,value
"Nc1cc2nc[nH]c2c(=O)[nH]1 [Compound 30, 6-Amino-imidazo[4,5c]pyridin-4(5H)one]",Virus rating (VR),"rhinovirus, type 30",0.3
same,Virus rating (VR),pseudorabies virus,0.3
same,Virus rating (VR),"rhinovirus, type 13",1.2
same,inhibition at 10 µM,L1210 cells [1],50%
same,Virus rating (VR),[2],1.0
same,Virus rating (VR),vaccinia virus,1.2
same,Virus rating (VR),[3],1.3
same,Virus rating (VR),"influenza virus, type Ao",0.5
same,Virus rating (VR),human cytomegalovirus,0.3
same,MIC,Escherichis,6 µg/mL
same,Virus rating (VR),[4],1.0
same,inhibition at 10 µM,L1210 cells [5],50%
same,Virus rating (VR),myxoma virus,0.9
same,Virus rating (VR),"rhinovirus, type 56",1.1
same,cytotoxic to L1210 cells,L1210 cells [6],cytotoxic
same,Virus rating (VR),"adenovirus, type 3",1.1
same,Virus rating (VR),"RV/2: rhinovirus, type 1",1.3
same,Virus rating (VR),murine cytomegalovirus,0.6
same,Virus rating (VR),"rhinovirus, type 1A",0.3
same,cytotoxic to Hela cells,Hela cells,cytotoxic
same,Virus rating (VR),[7],1.3
same,MIC,Proteus,25 µg/mL
same,inhibition of the growth of subcutaneous implants,adenocarcinoma 755,75% and 93%
same,LD10,LD10,500 mg/kg
same,Virus rating (VR),"rhinovirus, type 8",1.3
same,21 day survivors,leukemia L1210; 20 mg/kg i.p.,0/6
same,Average Mean Survival,leukemia L1210; 20 mg/kg i.p.,10.83 days
same,T/C,leukemia L1210; 20 mg/kg i.p.,1.32
same,increased the life span,leukemia L1210; 20 mg/kg i.p.,32%
same,ΔWt.,leukemia L1210; 20 mg/kg i.p.,+2.0 g
same,21 day survivors,leukemia L1210; 40 mg/kg i.p.,1/6
same,Average Mean Survival,leukemia L1210; 40 mg/kg i.p.,12.00 days
same,T/C,leukemia L1210; 40 mg/kg i.p.,1.43
same,increased the life span,leukemia L1210; 40 mg/kg i.p.,43%
same,ΔWt.,leukemia L1210; 40 mg/kg i.p.,+0.4 g
same,21 day survivors,leukemia L1210; 80 mg/kg i.p.,0/6
same,Average Mean Survival,leukemia L1210; 80 mg/kg i.p.,13.33 days
same,T/C,leukemia L1210; 80 mg/kg i.p.,1.63
same,increased the life span,leukemia L1210; 80 mg/kg i.p.,63%
same,ΔWt.,leukemia L1210; 80 mg/kg i.p.,+1.7 g

# From US4056674A, “Derivatives of 3-deazaguanine” (priority 1975, dated 1977)
